Results: ChEMBL document CHEMBL1127637, “Antiplatelet agents based on cyclooxygenase inhibition without ulcerogenesis. Evaluation and synthesis of 4,5-bis(4-methoxyphenyl)-2-substituted-thiazoles” (J Med Chem, 1994)

What was measured:
Assay type in all cases: functional
[1] = organism: Oryctolagus cuniculus; assay: In vitro antiplatelet activity against arachidonic acid induced malondialdehyde production
[2] = organism: Rattus norvegicus; assay: In vitro vasodilatory activity in isolated rat aorta; conditions: read-out: ED50 (the source's name)
[3] = system: Cavia porcellus; assay: Inhibitory effect on platelet aggregation induced by Arachidonic acid (AA) in guinea pigs ex vivo at a dose of 1 mg/Kg after 1 hr of oral administration
[4] = system: Cavia porcellus; assay: Inhibitory effect on platelet aggregation induced by Arachidonic acid (AA) in guinea pigs ex vivo at a dose of 3.2 mg/Kg after 1 hr of oral administration
[5] = system: Cavia porcellus; assay: Inhibitory effect on platelet aggregation induced by Collagen in guinea pigs ex vivo at a dose of 1 mg/Kg after 1 hr of oral administration
[6] = system: Cavia porcellus; assay: Inhibitory effect on platelet aggregation induced by Collagen in guinea pigs ex vivo at a dose of 3.2 mg/Kg after 1 hr of oral administration
[7] = system: Cavia porcellus; assay: Inhibitory effect on platelet aggregation induced by Arachidonic acid (AA) in guinea pigs ex vivo at a dose of 3.2 mg/Kg after 6 hr of oral administration
[8] = system: Cavia porcellus; assay: Inhibitory effect on platelet aggregation induced by Collagen in guinea pigs ex vivo at a dose of 3.2 mg/Kg after 6 hr of oral administration
[9] = organism: Oryctolagus cuniculus; assay: Inhibitory activity on the MDA production at 0.1 uM
[10] = organism: Oryctolagus cuniculus; assay: Inhibitory activity on the MDA production at 0.01 uM
[11] = system: Cavia porcellus; assay: Inhibitory effect on platelet aggregation induced by Arachidonic acid (AA) in guinea pigs ex vivo at a dose of 1 mg/kg after 1 hr of oral administration
[12] = system: Cavia porcellus; assay: Inhibitory effect on platelet aggregation induced by Arachidonic acid in guinea pigs ex vivo at a dose of 3.2 mg/Kg after 1 hr of oral administration
[13] = system: Cavia porcellus; assay: Inhibitory effect on platelet aggregation induced by Arachidonic acid (AA) in guinea pigs ex vivo at a dose of 1 mg/Kg after 6 hr of oral administration
[14] = system: Cavia porcellus; assay: Inhibitory effect on platelet aggregation induced by Collagen in guinea pigs ex vivo at a dose of 1 mg/Kg after 6 hr of oral administration
[15] = system: Rattus norvegicus; assay: Induction of acute stomach lesion at a dose of 100 mg/Kg was determined in 5 animals
[16] = system: Rattus norvegicus; assay: Induction of acute stomach lesion at a dose of 32 mg/Kg was determined in 5 animals
[17] = system: Cavia porcellus; assay: Inhibitory effect on platelet aggregation induced by Arachidonic acid (AA) in guinea pigs ex vivo at a dose of 1 mg/kg after 6 hr of oral administration
[18] = system: Rattus norvegicus; assay: Compound was evaluated for collagen-induced platelet aggregation ex vivo in rat at the dose of 100 mg/Kg
[19] = system: Rattus norvegicus; assay: Induction of acute stomach lesion at a dose of 100 mg/Kg
[20] = system: Rattus norvegicus; assay: Compound was evaluated for collagen-induced platelet aggregation in rat ex vivo at the dose of 32 mg/Kg
[21] = system: Rattus norvegicus; assay: Induction of acute stomach lesion at a dose of 10 mg/Kg
[22] = system: Rattus norvegicus; assay: Induction of acute stomach lesion at a dose of 32 mg/Kg
[23] = system: Rattus norvegicus; assay: Induction of acute stomach lesion at a dose of 320 mg/Kg
[24] = organism: Oryctolagus cuniculus; assay: Inhibitory activity on the MDA production at 1 uM
[25] = system: Cavia porcellus; assay: ccInhibitory effect on platelet aggregation induced by Arachidonic acid (AA) in guinea pigs ex vivo at a dose of 3.2 mg/Kg after 6 hr of oral administration

| Compound | IC50 [1] [nM] | EC50 [2] [µM] | also measured |
| --- | --- | --- | --- |
| COc1ccc(-c2nc(/N=C(\N)NC3CCCCC3)sc2-c2ccc(OC)cc2)cc1 | > 1000 | > 100 | – |
| COc1ccc(-c2nc(/N=C(\N)N(C)C)sc2-c2ccc(OC)cc2)cc1 | 37 | – | Inhibition % [3]: 48.5%; Inhibition % [4]: 100%; Inhibition % [5]: 33.1%; Inhibition % [6]: 100%; Inhibition % [7]: 100%; Inhibition % [8]: 98% |
| COc1ccc(-c2nc(C3=CCN(C)CC3)sc2-c2ccc(OC)cc2)cc1 | < 10 | 5.9 | inhibition in vivo at 3.2 mg/kg [7]: 100%; inhibition in vivo at 3.2 mg/kg [8]: 69.3% |
| COc1ccc(-c2nc(N=C(N)N)sc2-c2ccc(OC)cc2)cc1 | 31000 | 2 | – |
| COc1ccc(-c2nc(C(=O)NCCc3cccnc3)sc2-c2ccc(OC)cc2)cc1 | < 100 | 20 | Inhibition [9]: 56.6% |
| COc1ccc(-c2nc(C3=NNC(=O)CC3)sc2-c2ccc(OC)cc2)cc1 | > 1000 | – | – |
| COc1ccc(-c2nc(CN(C)C)sc2-c2ccc(OC)cc2)cc1 | 96 | 8.4 | Inhibition % [4]: 100%; Inhibition % [6]: 100%; Inhibition % [7]: 0%; Inhibition % [8]: 0% |
| COc1ccc(-c2nc(C(=O)N3CCNC(CCO)C3)sc2-c2ccc(OC)cc2)cc1 (stereo unspecified) | > 1000 | 9.5 | – |
| COc1ccc(-c2nc(C(=O)N(C)C)sc2-c2ccc(OC)cc2)cc1 | < 100 | – | inhibition in vivo at 3.2 mg/kg [7]: 89%; inhibition in vivo at 3.2 mg/kg [8]: 4.1%; Inhibition [9]: 51.4% |
| COc1ccc(-c2nc(C(=O)N3CCCCC3CCO)sc2-c2ccc(OC)cc2)cc1 (stereo unspecified) | 45 | 6.8 | Inhibition % [7]: 100%; Inhibition % [8]: 100% |
| CNC(=N)Nc1nc(-c2ccc(OC)cc2)c(-c2ccc(OC)cc2)s1 | 62 | 1.2 | Inhibition % [11]: 100%; Inhibition % [12]: 100%; Inhibition % [5]: 9%; Inhibition % [6]: 76.2% |
| COc1ccc(-c2nc(C(F)(F)F)sc2-c2ccc(OC)cc2)cc1 [ITAZIGREL] | 5.6 | > 300 | Inhibition % [3]: 100%; Inhibition % [5]: 100%; Inhibition % [13]: 100%; Inhibition % [14]: 79%; Ulcer index [15]: 1.4; Ulcer index [16]: 0.4 |
| CCOC(=O)/C=C/c1nc(-c2ccc(OC)cc2)c(-c2ccc(OC)cc2)s1 | 20 | > 100 | – |
| C/N=C(/NC)Nc1nc(-c2ccc(OC)cc2)c(-c2ccc(OC)cc2)s1 | 970 | – | – |
| CCN(CC)C(=O)c1nc(-c2ccc(OC)cc2)c(-c2ccc(OC)cc2)s1 | < 10 | 14 | Inhibition [10]: 65% |
| CCOC(=O)C1=C(C)N=C(C)/C(=C(/O)OCC)C1c1nc(-c2ccc(OC)cc2)c(-c2ccc(OC)cc2)s1 (stereo unspecified) | < 100 | > 32 | – |
| COc1ccc(-c2nc(C(=O)N=C(N)N)sc2-c2ccc(OC)cc2)cc1 | > 100 | > 100 | – |
| CC(=O)Oc1ccccc1C(=O)O [ASPIRIN] | 16000 | > 600 | Inhibition % [4]: 64%; Inhibition % [6]: 9%; ED50 [20]: 8.4 mg/kg; Ulcer index [21]: 0.6; Ulcer index [19]: 2.2; Ulcer index [22]: 2; Ulcer index [23]: 3.8 |
| COc1ccc(-c2nc(/C=C/C(=O)O)sc2-c2ccc(OC)cc2)cc1 | > 100 | 55 | – |
| COc1ccc(-c2nc(/N=C(\N)n3ccnc3)sc2-c2ccc(OC)cc2)cc1 | > 100 | – | – |
| COc1ccc(-c2nc(CNC(=O)CSc3ccccc3)sc2-c2ccc(OC)cc2)cc1 | < 100 | 4.2 | inhibition in vivo at 1 mg/kg [13]: 16.5%; inhibition in vivo at 1 mg/kg [14]: -2.6%; Inhibition [9]: 73.6% |
| COc1ccc(-c2nc(/C=C/C(=O)N3CCN(C)CC3)sc2-c2ccc(OC)cc2)cc1 | > 1000 | 20 | – |
| Cc1cc(/N=C(\Nc2nccs2)NC2CCCCC2)c2ccccc2n1 [TIMEGADINE] | 31 | 2.5 | Inhibition % [3]: 14.5%; Inhibition % [4]: 52.4% |
| CCOC(=O)CC(c1nc(-c2ccc(OC)cc2)c(-c2ccc(OC)cc2)s1)N1CCN(C)CC1 (stereo unspecified) | > 1000 | 2.6 | – |
| COc1ccc(-c2nc(/N=C(\N)NC(C)C)sc2-c2ccc(OC)cc2)cc1 | > 100 | 9.1 | – |
| CCOC(=O)/C(C#N)=C/c1nc(-c2ccc(OC)cc2)c(-c2ccc(OC)cc2)s1 | < 10 | > 100 | – |
| CC/N=C(/N)Nc1nc(-c2ccc(OC)cc2)c(-c2ccc(OC)cc2)s1 | > 100 | – | – |
| COc1ccc(-c2nc(C(=O)N3CCN(C(=O)NC(C)C)CC3)sc2-c2ccc(OC)cc2)cc1 | > 1000 | 15 | – |

Further lines, with some results ahead:

| IC50 [1] [nM] | EC50 [2] [µM] | Compound | also measured |
| --- | --- | --- | --- |
| > 1000 | 8.7 | COc1ccc(-c2nc(C(=O)NCCN3CCOCC3)sc2-c2ccc(OC)cc2)cc1 | – |
| > 100 | 4.3 | COc1ccc(-c2nc(C(=O)N3CCCN(C)CC3)sc2-c2ccc(OC)cc2)cc1 | – |
| < 10 | < 100 | COc1ccc(-c2nc(C(=O)N3CCOCC3)sc2-c2ccc(OC)cc2)cc1 | Inhibition [10]: 74.8% |
| > 1000 | – | COc1ccc(-c2nc(C(N)=O)sc2-c2ccc(OC)cc2)cc1 | – |
| 39 | 5.2 | COc1ccc(-c2nc(N3CCN(C)CC3)sc2-c2ccc(OC)cc2)cc1 | inhibition in vivo at 1 mg/kg [13]: 60.9%; inhibition in vivo at 1 mg/kg [14]: 65.4% |
| > 100 | 7.7 | COc1ccc(-c2nc(CN)sc2-c2ccc(OC)cc2)cc1 | – |
| 22 | 15 | CNC(=O)NCc1nc(-c2ccc(OC)cc2)c(-c2ccc(OC)cc2)s1 | – |
| 55 | – | COc1ccc(-c2nc(CNC(=O)C3=NNC(=O)CC3)sc2-c2ccc(OC)cc2)cc1 | inhibition in vivo at 1 mg/kg [13]: 100%; inhibition in vivo at 3.2 mg/kg [7]: 100%; inhibition in vivo at 1 mg/kg [14]: 84.3%; inhibition in vivo at 3.2 mg/kg [8]: 94.1% |
| 15 | 8.1 | COc1ccc(-c2nc(CNC(C)=O)sc2-c2ccc(OC)cc2)cc1 | Inhibition % [13]: 60.9%; Inhibition % [14]: 26.6% |
| 88 | – | COc1ccc(-c2nc(C(=O)N3CCN(C)CC3)sc2-c2ccc(OC)cc2)cc1 [FR-122047] | inhibition in vivo at 1 mg/kg [17]: 100%; inhibition in vivo at 3.2 mg/kg [7]: 100%; inhibition in vivo at 1 mg/kg [14]: 83.1%; inhibition in vivo at 3.2 mg/kg [8]: 100%; ED50 [18]: 1.4 mg/kg; Ulcer index [19]: 0 |
| < 100 | > 100 | COc1ccc(-c2nc(CCC(=O)O)sc2-c2ccc(OC)cc2)cc1 | – |
| < 1000 | 66 | COc1ccc(-c2nc(/N=C(\N)N3CCOCC3)sc2-c2ccc(OC)cc2)cc1 | Inhibition [24]: 79.9% |
| 660 | 12 | COc1ccc(-c2nc(CNC(=O)N3CCOCC3)sc2-c2ccc(OC)cc2)cc1 | – |
| > 1000 | 11 | COc1ccc(-c2nc(C(=O)N3CCCCC3)sc2-c2ccc(OC)cc2)cc1 | – |
| < 100 | 6 | COc1ccc(-c2nc(CNC(=O)CSC)sc2-c2ccc(OC)cc2)cc1 | inhibition in vivo at 1 mg/kg [13]: -3.9%; inhibition in vivo at 1 mg/kg [14]: -13.3%; Inhibition [9]: 73.3% |
| 42 | 5.7 | COc1ccc(-c2nc(CNC(=O)NC(C)C)sc2-c2ccc(OC)cc2)cc1 | inhibition in vivo at 3.2 mg/kg [25]: 100%; inhibition in vivo at 1 mg/kg [13]: 100%; inhibition in vivo at 1 mg/kg [14]: 100%; inhibition in vivo at 3.2 mg/kg [8]: 100% |
| 25 | – | COc1ccc(-c2nc(CNC(=O)c3cccnc3)sc2-c2ccc(OC)cc2)cc1 | Inhibition % [7]: 40.3%; Inhibition % [8]: 37.4% |
